Experiments:
HT-22 [1] = experiment: The concentration producing 50% protection against L-HCA-mediated neurotoxicity in HT-22 hippocampal cell line.; format: functional, Mus musculus
HT-22 [2] = experiment: The minimum tolerated concentration by MTT reduction assay in HT-22 hippocampal cell line.; format: functional, Mus musculus
HT-22 [3] = experiment: The concentration producing 50% toxicity in HT-22 hippocampal cell line.; format: functional; conditions: Mus musculus, read-out: TC50 (the source's name)
HT-22 [4] = experiment: Safety ratio of MTC to that of PC50; format: functional, Mus musculus
Mus musculus [5] = experiment: Percent survival of NMRI mice after 5 hours of intraperitoneal administration of 150 mg/kg of compound.; format: functional; conditions: ip
Mus musculus [6] = experiment: Body temperature of NMRI mice after 30 minutes of intraperitoneal administration of 150 mg/kg compound.; format: functional
Mus musculus [7] = experiment: The compound was tested for % survival of NMRI mice after 5 hours of intraperitoneal administration of 150 mg/kg of dose; 30/60; format: functional; conditions: ip
[8] = Safety ratio of MTC to that of PC50; Not relevant; format: toxicity

Row | Compound | PC50 (HT-22 [1]) [µM] | MTC (HT-22 [2]) [µM] | CC50 (HT-22 [3]) [µM] | Ratio (HT-22 [4]) | survival at 150 mg/kg (Mus musculus [5]) [%] | change in body temperature (Mus musculus [6]) [°C] | survival at 150 mg/kg (Mus musculus [7]) [%] | Ratio [8] | PC50 (HT-22 [1]; Mus musculus) [µM] | MTC (HT-22 [2]; Mus musculus) [µM] | Ratio (HT-22 [4]; Mus musculus)
1 | CCOc1c(C(C)(C)C)cc2c(c1C(C)(C)C)C=CC(C)(C)N2 | 0.1 | 25 | 36.5 | 250 | 60 | -1 | – | – | – | – | –
2 | CCOc1ccc2c(c1)C(C)=CC(C)(C)N2 [E324] | 0.41 | 50 | 103 | 122 | 80 | -1.85 | – | – | – | – | –
3 | CC(C)(C)/[N+]([O-])=C/c1ccccc1 | >200 | >200 | – | – | – | -2.1 | 50 | Not relevant | – | – | –
4 | CC(C)(C)Oc1ccc2c(c1)C=CC1(CCCCC1)N2 | 0.13 | 10 | 13.2 | 77 | 30 | -0.2 | – | – | – | – | –
5 | CCOc1c(C)cc2c(c1C)CCC(C)(C)N2 | 0.16 | 100 | 186 | 625 | 80 | -0.5 | – | – | – | – | –
6 | CCOc1c(C)cc2c(c1C)C=CC(C)(C)N2 | 0.35 | 50 | 182 | 143 | 100 | -0.9 | – | – | – | – | –
7 | CCOc1ccc2c(c1)C(C)CC(C)(C)N2 (stereo not drawn) | 0.86 | 50 | 137 | 58 | – | – | – | – | – | – | –
8 | CCOc1c(C(C)C)cc2c(c1C(C)C)C=CC(C)(C)N2 | 0.07 | 10 | 200 | 143 | 50 | -0.05 | – | – | – | – | –
9 | CC1=NN(c2ccccc2)C(=O)C1 [EDARAVONE] | 70.4 | 200 | > 200 | 2.8 | 80 | -2.4 | – | – | – | – | –
10 | CCOc1cccc2c1NC1(C=C2)CCCCC1 | 0.37 | 10 | 17.9 | 27 | 60 | -1 | – | – | – | – | –
11 | CCOc1c(C)c(C)c2c(c1C)CCC1(CCCCC1)N2 | 0.15 | 10 | 17.2 | 67 | 60 | -0.8 | – | – | – | – | –
12 | CCOc1cccc2c1NC(C)(C)C=C2 | 1 | 100 | 200 | 100 | – | – | – | – | – | – | –
13 | COc1ccc2c(c1)C=CC1(CCCCC1)N2 | 0.49 | 5 | 46.9 | 10 | 100 | -1 | – | – | – | – | –
14 | CCOc1ccc2c(c1)CCC1(CCCCC1)N2 | 0.16 | 25 | 74.5 | 156 | 60 | -0.7 | – | – | – | – | –
15 | CCOc1c(C)cc2c(c1C)CCC1(CCCCC1)N2 | 0.01 | 10 | 17.6 | 1000 | 80 | -2.2 | – | – | – | – | –
16 | CC(C)(C)C(=O)Oc1ccc2c(c1)C=CC1(CCCCC1)N2 | 0.73 | 1 | 1.61 | 1.4 | 30 | -2.8 | – | – | – | – | –
17 | CCOc1ccc2c(c1)C=CC(C)(C)N2 | 0.19 | 25 | 56 | 132 | 100 | -1.7 | – | – | – | – | –
18 | CCOc1c(C)c(C)c2c(c1C)C=CC1(CCCCC1)N2 | 0.17 | 10 | 17.8 | 59 | 50 | -0.8 | – | – | – | – | –
19 | CCOc1c(C(C)C)cc2c(c1C(C)C)C=CC1(CCCCC1)N2 | 0.12 | 10 | 16.9 | 83 | – | – | – | – | – | – | –
20 | CCOc1c(C)c(C)c2c(c1C)C=CC(C)(C)N2 | 0.46 | 50 | 123 | 109 | 70 | -2.5 | – | – | – | – | –
21 | C1=CC2(CCCCC2)Nc2ccc(Oc3ccccc3)cc21 | 4.75 | 10 | 11.2 | 2.1 | – | – | – | – | – | – | –
22 | O=c1c2ccccc2[se]n1-c1ccccc1 [EBSELEN] | 1 | 10 | 20 | 10 | 20 | -1.85 | – | – | – | – | –
23 | CCOc1c(C)cc2c(c1C)C=CC1(CCCCC1)N2 | 0.03 | 10 | 19.3 | 333 | 70 | -0.3 | – | – | – | – | –
24 | CCOc1ccc2c(c1)C=CC1(CCCCC1)N2 | 0.18 | 5 | 17.1 | 28 | 80 | -0.2 | – | – | – | – | –
25 | VITAMIN E | – | – | – | – | – | – | – | – | 0.8 | > 200 | > 250
26 | CCOc1ccc2c(c1)C=CC1(CCNCC1)N2 | 0.51 | 10 | 139 | 20 | – | – | – | – | – | – | –
27 | CCOc1ccc2c(c1)C=CC1(CCN(CC3CC3)CC1)N2 | 0.77 | 200 | 200 | 260 | – | – | – | – | – | – | –
28 | CCOc1c(C(C)C)cc2c(c1C(C)C)CCC(C)(C)N2 | 0.06 | 10 | 18.2 | 167 | 40 | -0.5 | – | – | – | – | –
29 | CCOc1c(C)c(C)c2c(c1C)CCC(C)(C)N2 | 0.2 | 50 | 128 | 250 | 100 | -0.2 | – | – | – | – | –
